Results on two molecules are retold here after patent publication US20260027243A1, “AMPHIPHILIC COMPOUNDS FOR ATTENUATING NEUROTOXICITY OF AMYLOID-beta OLIGOMERS AND DIAGNOSTIC METHODS” (THE BOARD OF TRUSTEES OF THE UNIVERSITY OF ILLINOIS, priority 2022, published 2026).

The Kd is the free concentration of one partner at which half of the binding sites on the other are occupied at equilibrium, for simple one-to-one binding. One may read the logD as the decadic logarithm of the distribution of all forms, ionised or not, between an organic phase and buffer at a given pH. A high value points to a more lipophilic compound.

Data set [1] addresses T1, native Aβ species in 5×FAD mice brain sections (Homo sapiens, UniProt P05067).
T1 construct: from tissue; host or cells: brain sections of 5×FAD transgenic mice
Put plainly: Fluorescence staining of 5×FAD mice brain sections, colocalization. The following applies: 5×FAD brain sections, compared with ThS. Set-up: species or system mouse. The method, then:
Histological Staining of 5×FAD Mice Brain Sections. 5×FAD transgenic mice brain sections were blocked with bovine serum albumin (2% BSA in PBS, pH 7.4, 10 min). Then the mice brain sections were transferred to a PBS solution of the compound and incubated for 1 h. […] Then, the brain sections were treated with BSA again (5 min) followed by washing with PBS (3×2 min), DI water (3×2 min). Finally, the mice brain sections were mounted with non-fluorescent mounting media, and the images were obtained by using EVOS FL Auto 2. ImageJ Fiji program was used for colocalization analysis and determination of the Pearson's correlation coefficient. The primary antibodies were labeled with dye CF594 via Mix-n-Stain™ CF™ 594 Antibody Labeling Kit (Sigma Aldrich).

For data set [2], the target named is T2, Aβ42 fibrils and oligomers (Homo sapiens, UniProt P05067).
T2 construct: commercial Aβ42 monomer powder (from GL biochem); purchased GL biochem
T2 sequence (P05067 672-713 limits assumed): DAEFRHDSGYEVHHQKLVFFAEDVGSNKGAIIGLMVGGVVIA
The data set can be described thus: Fluorescence turn-on with Aβ42 fibrils and oligomers. In kind it is binding. The method, then: Fluorescence Spectral Testing of Compounds with Aps2 Fibrils and Aβ42 Oligomers. The formation of Aβ42 fibrils and oligomers was confirmed by the ThT fluorescence turn-on assay. The fluorescence spectra of ThT in PBS (100 μL PBS, 10.0 μM) were recorded as the baseline. After that, either Aβ42 fibrils or oligomers were added to ThT in PBS. The final volume of the solution mixture should be 100 μL, in which the final concentrations of ThT and Aβ42 species were10. μM and 25 μM, respectively.
For the interactions between Aps and compounds, the fluorescence spectra of the compounds' solution (100 μL PBS, 5.0 μM) were recorded as the baseline without adding various Aβ42 species.
After that, either Aβ42 fibrils or oligomers were added to the compounds' solutions in PBS. The final volume of the solution mixture should be 100 μL, in which the final concentrations of the compound and Aβ42 species were 5. μM and 25 μM, respectively.

For the next data set, the target named is T3, Aβ42 fibrils (Homo sapiens, UniProt P05067).
T3 construct: commercial Aβ42 monomer powder (from GL biochem); purchased GL biochem
T3 sequence (P05067 672-713 limits assumed): as above
The data set can be described thus: Fluorescence saturation binding assay with Aβ42 fibrils. Here is the method: Preparation of the Aβ42 Fibrils and Aβ42 Oligomers. Aβ42 fibrils: 1 mg of commercial Aβ42 monomer powder (from GL biochem) was dissolved in 1 mL 1,1,1,3,3,3-hexafluoro-2-propanol (HFIP) at room temperature and incubated for 1 h. The resulting solution was divided equally into two Eppendorf tubes. The solution in each Eppendorf tube containing 0.5 mg Aβ42 monomer was then evaporated overnight and dried by vacuum centrifuge to generate monomeric films. […] Aβ42 fibrils solution was prepared by dissolving the 0.5 mg monomeric films in 1.1 mL PBS buffer (with final DMSO concentration less than 1%) and stirring at 37° C. for 3 days.
(§1) In Vitro Saturation Binding Studies with Aβ42 Fibrils and Aβ42 Oligomers. To a solution of increasing concentrations of compounds, a fixed concentration of the generated aggregated Aβ42 fibrils or Aβ42 oligomers solutions (5 to 15 NM) was added to yield a total volume of 100 μL. Nonspecific binding was determined […]. The mixture was incubated for 15 min at room temperature. All fluorescence data were obtained on a SpectraMax M2e plate reader (Molecular Devices). The fluorescent intensity was measured at the corresponding emission wavelength of each compound, and the Kd binding curves were generated by GraphPad Prism 8.0 with one site-specific binding model. Equation: Y=Bmax*X/(Kd+X).

Data set [3] deals with native Aβ aggregates in AD mice brain. The data set can be described thus: BBB permeability: in vivo accumulation after intraperitoneal treatment, brain section colocalization. Set-up: species or system mouse. The note with it: 12-month-old AD mice, 0.1 mg/Kg, 10 days. Here is the method:
FIG. 13. In vivo accumulation of DCM-OH-2-DT. Fluorescence microscopy images of brain sections from 12-month-old 5×FAD mice administered with DCM-OH-2-DT for 10 days. The brain sections were stained with Thioflavin S (ThS); [ThS]=5 μM, scale bar=125 μm.
(§2) Fluorescence Imaging of 5×FAD Mouse Brain Sections and blood-brain barrier (BBB) permeability. To confirm the developed compounds can also bind to native Aβ aggregates, we performed fluorescence imaging studies and colocalization experiments on 5×FAD mouse brain sections. […] This further supports that the compounds are selective and can bind to native soluble Aβ oligomers. Before investigating the blood-brain barrier (BBB) permeability of the developed compounds, their neurotoxicity was measured first (FIG. 12). […] DCM-OH-2 leads to less than 80% cell viability even at 2 μM, which is probably due to its poor solubility. Nevertheless, the DCM-OH-2-DT was chosen as the candidate to test the blood-brain barrier (BBB) permeability. 12-month-old AD mice were treated with compound DCM-OH-2-DT (0.1 mg/Kg) for 10 days via intraperitoneal injection. At the end of treatment, mice brains were harvested and colocalization experiments were performed on the mice brain sections.

Data set [4] deals with brain region of 5×FAD mice vs. WT mice. The data set can be described thus: Real-time in vivo NIR fluorescence imaging. On the set-up: species or system mouse. The note with it: 5 mg/kg. Here is the method:
DCM-OH-2-DT was chosen as the best candidate for real-time in vivo fluorescence imaging studies. Seven-month-old AD mice and age-matched wild type (WT) mice were injected with the compound at 5 mg/kg. The NIR fluorescence intensities from the brain region were collected and analyzed over time. […] These imaging results further support the potential in vivo application of the developed compounds.
In vivo Imaging Studies. The real-time in vivo fluorescence imaging studies were performed with IVIS imaging system. 7-month-old 5×FAD mice (n=3) and age-matched control B6SJLF1/J mice (n=3) were shaved at the brain region before background imaging. All mice were injected with DCM-OH-2-DT (5 mg/kg, 15% DMSO, 85% PBS) via jugular vein injection. The mice were kept on the imaging stage under anesthesia with 2.5% isoflurane gas in an oxygen flow (1.5 L/min) before the imaging and were woken up after the imaging. Fluorescence signals from the brain were recorded at 5-, 15-, 30-, 60-min after the injection of DCM-OH-2-DT with a filter set (excitation at 470 nm and emission at 740 nm). Imaging data was analyzed by Living Image software, and an ROI was drawn around the brain region. The data were analyzed by subtracting the background fluorescence intensity of each mouse. P values were calculated by Student's t test.

The target in the next data set is T4, Aβ42 oligomers (Homo sapiens, UniProt P05067).
T4 construct: commercial Aβ42 monomer powder (from GL biochem); purchased GL biochem
T4 sequence (P05067 672-713 limits assumed): as above
Put plainly: Fluorescence saturation binding assay with Aβ42 oligomers. The method, then: Aβ42 oligomers: The 0.5 mg monomeric films were dissolved in 1.1 mL PBS buffer (with final DMSO concentration less than 1%) and incubated at 4° C. overnight. The resulting solution was then centrifuged at 3000 rpm for 15 mins to remove the insoluble aggregates. The clear supernatant was then used for the following experiments. Aβ42 oligomers concentration was checked by measuring the absorbance of the supernatant at 280 nm.
as §1

A short description of data set [5]: Log D by octanol-PBS partition. It is filed as physicochemical. The note with it: DCM compounds. Here is the method: Log D measurements. The Log D value was measured following a published procedure using slight modifications. In general, compounds in 0.5 mL octanol was subjected to partition with 0.5 mL octanol-saturated PBS. The whole mixture was stirred vigorously for 5 min, and centrifuged at 2,000 rpm for 5 min. The top octanol layer was separated for later fluorescence measurement. The remaining PBS layer was partitioned with 0.5 mL PBS-saturated octanol, and the second top octanol layer was then separated after vigorous stirring and centrifuging at 2,000 rpm for another 5 min. The two octanol layers' fluorescence spectra were recorded. The log D value was calculated by the fluorescence intensity ratio at the compounds' emission wavelength for the above two octanol extractions.

For data set [6], the system named is human neuroblastoma cells (SH-SY5Y). Put plainly: Cytotoxicity of DCM compounds in SH-SY5Y cells. It is filed as cell-based. The following applies: at 2 μM.
Source text: as §2

The structures appear in SMILES notation. Where two headings read alike, the source gives them in different places.

T1 sequence (P05067 672-713 limits assumed): as above

On to `CN1CCN(C)CCN(Cc2cc(/C=C/C=C/C3=CC(=C(C#N)C#N)c4ccccc4O3)cc(CN3CCN(C)CCN(C)CC3)c2O)CC1` [DCM-OH-2-DT, 2-(2-((1E,3E)-4-(3,5-bis((4,7-dimethyl-1,4,7-triazonan-1-yl)methyl)-4-hydroxyphenyl)buta-1,3-dien-1-yl)-4H-chromen-4-ylidene)malononitrile], for which, in data set [1], the “region of Aβ aggregates bound” value is listed as “bind to the peripheral region of the Aβ aggregates”. Moreover, the “maximum emission wavelength when binding to Aβ aggregates” value in data set [2] is reported as 730 nm. Also, the Kd on Aβ42 fibrils (Table 3, DCM compounds, read-out: Kd, Fibrils) is 500 ± 110 nM; on Aβ42 oligomers (Table 3, DCM compounds, read-out: Kd, Oligomers) it was 430 ± 60 nM. For the same molecule, the “colocalization with ThS after in vivo administration” value in data set [3] is recorded as “good colocalization with ThS”. Also, in data set [4] (jugular vein injection), the “time to maximum brain NIR fluorescence signal after injection” value is reported as “about 15 min”. Moreover, in data set [4] (7-month-old mice, 5-, 15-, and 30-min post injection), the “brain fluorescence signal, AD mice vs WT mice” value is recorded as “significantly higher fluorescence signal in AD mice”. For the same molecule, in data set [5], the pH-dependent lipophilicity (logD) came to 1.2 ± 0.07.
On to `N#CC(C#N)=C1C=C(/C=C/C=C/c2ccc(O)cc2)Oc2ccccc21` [DCM-OH-2], for which the cell viability entry in data set [6] was “less than 80%”. Also, the dissociation constant (Kd) came out at 80 nM at Aβ42 fibrils (read-out: Kd value to Aβ42 fibrils) and 120 nM at Aβ42 oligomers (read-out: Kd value to Aβ42 oligomers). Besides, the pH-dependent lipophilicity (logD) in data set [5] turned out to be 0.96 ± 0.07.
